Results reported in US11286234B2, “Phenyl urea derivatives as N-formyl peptide receptor modulators” (Allergan, Inc., priority 2016, dated 2022).

How the values were obtained:
FPR1 = biological target: T1, FPR1 (Homo sapiens, UniProt P21462); assay: Compound-induced calcium activity (FLIPR Tetra) in CHO-Gα16 cells stably expressing FPR1; assay type: cell-based; details: for EC50 / Emax: CHO-Gα16 cells stably expressing FPR1; for EC50: calcium activity, tested 0.61 to 10,000 nM, read-out: FPR1 Ga16-CHO EC50; for Emax: efficacy value in brackets, read-out: FPR1 Ga16-CHO (% eff); for Ratio FPR2:FPR1 (EC50): ratio of the EC50 for agonizing FPR2 to the EC50 for agonizing FPR1
T1 construct: expressed in transfected cells
T1 sequence (P21462 1-350): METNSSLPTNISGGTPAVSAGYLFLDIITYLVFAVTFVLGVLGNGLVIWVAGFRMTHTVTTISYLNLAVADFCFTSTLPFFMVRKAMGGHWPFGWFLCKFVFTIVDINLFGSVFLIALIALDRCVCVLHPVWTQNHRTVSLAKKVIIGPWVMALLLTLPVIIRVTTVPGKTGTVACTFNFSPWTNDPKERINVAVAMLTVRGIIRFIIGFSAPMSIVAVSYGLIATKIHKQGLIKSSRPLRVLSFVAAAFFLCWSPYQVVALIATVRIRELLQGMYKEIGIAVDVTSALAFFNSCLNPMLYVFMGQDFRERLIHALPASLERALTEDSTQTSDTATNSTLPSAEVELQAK
Description: (§1) CHO-Gα16 cells stably expressing FPR1 or FPR2 were cultured in: Ham's F12 nutrient media, 10% fetal bovine serum, 1% PSA (penicillin, streptomycin, amphotericin B antiobiotic/antimycotic), 400 μg/ml geneticin and 50 μg/ml hygromycin. In general, the day before the experiment, 18,000 cells/well were plated in a 384-well clear bottom poly-D-lysine coated plate. The following day the screening compound-induced calcium activity was assayed on the FLIPR^Tetra. The drug plates were prepared in 384-well microplates using the EP3 and the MultiPROBE robotic liquid handling systems. Compounds were tested at concentrations ranging from 0.61 to 10,000 nM. Results are expressed as EC50 (nM) and efficacy values.

FPR2 = biological target: T2, FPR2 (Homo sapiens, UniProt P25090); assay: Compound-induced calcium activity (FLIPR Tetra) in CHO-Gα16 cells stably expressing FPR2; assay type: cell-based; details: for EC50: calcium activity, tested 0.61 to 10,000 nM, read-out: FPR2 Ga16-CHO EC50; for Emax: efficacy value in brackets, read-out: FPR2 Ga16-CHO (% eff)
T2 construct: expressed in transfected cells
T2 sequence (P25090 1-351): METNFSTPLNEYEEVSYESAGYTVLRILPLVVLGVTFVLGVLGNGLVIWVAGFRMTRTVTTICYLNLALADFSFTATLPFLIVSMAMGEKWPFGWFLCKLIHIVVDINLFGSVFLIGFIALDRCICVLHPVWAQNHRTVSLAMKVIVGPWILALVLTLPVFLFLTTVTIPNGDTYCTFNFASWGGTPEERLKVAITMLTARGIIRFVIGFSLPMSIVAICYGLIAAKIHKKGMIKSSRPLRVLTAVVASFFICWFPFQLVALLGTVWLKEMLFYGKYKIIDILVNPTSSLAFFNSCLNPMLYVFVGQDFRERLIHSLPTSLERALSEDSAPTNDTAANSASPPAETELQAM
Description: as §1

EC50 (FPR1) [µM]	Emax (FPR1) [%]	Ratio FPR2:FPR1 (EC50) (FPR1)	EC50 (FPR2) [µM]	Emax (FPR2) [%]	SMILES
0.047	101	5.2	0.246	98	O=C(Nc1ccc(Br)cc1)N[C@@H]1CCCC[C@H]1C(=O)O (relative stereo) [Compound 18, (1R*,2R*)-2-(3-(4-Bromophenyl)ureido)cyclohexanecarboxylic acid]
0.014	97	3.4	0.048	102	O=C(Nc1ccc(Br)cc1)N[C@H]1CCCC[C@H]1C(=O)O (relative stereo) [Compound 19, (1R*,2S*)-2-(3-(4-Bromophenyl)ureido)cyclohexanecarboxylic acid]
4.03	72	0.17	0.678	47	COC(=O)C(CNC(=O)Nc1ccc(Br)cc1)CC(C)C (stereo not drawn) [Compound 1, Methyl 2-[({[(4-bromophenyl)amino]carbonyl}amino)methyl]-4-methylpentanoate]
10.4	57	0.21	2.2	78	COC(=O)C(CNC(=O)Nc1ccc(C(F)(F)F)cc1)CC(C)C (stereo not drawn) [Compound 2, Methyl 4-methyl-2-{[({[4-(trifluoromethyl)phenyl]amino}carbonyl)amino]methyl}pentanoate]
> 10	50	<1	1.32	95	COC(=O)C(CNC(=O)Nc1ccc(Cl)cc1)CC(C)C (stereo not drawn) [Compound 3, Methyl 2-[({[(4-chlorophenyl)amino]carbonyl}amino)methyl]-4-methylpentanoate]
> 19	21	<1	1.53	98	COC(=O)C(CNC(=O)Nc1ccc(Br)cc1F)CC(C)C (stereo not drawn) [Compound 4, Methyl 2[({[(4-bromo-2-fluorophenyl)amino]carbonyl}amino)methyl]-4-methylpentanoate]
> 73	65	<1	0.541	42	COC(=O)C(CNC(=O)Nc1ccc(OC)cc1)CC(C)C (stereo not drawn) [Compound 5, Methyl 2-[({[(4-methoxyphenyl)amino]carbonyl}amino)methyl]-4-methylpentanoate]
> 15	39		> 1	67	COC(=O)C(CNC(=O)Nc1ccc(OC(F)(F)F)cc1)CC(C)C (stereo not drawn) [Compound 6, Methyl 4-methyl-2-{[({[4-(trifluoromethoxy)phenyl]amino}carbonyl)amino]methyl}pentanoate]
0.035	97	37	1.3	90	CC(C)CC(CNC(=O)Nc1ccc(Br)cc1)C(=O)O (stereo not drawn) [Compound 7, 2-[({[(4-Bromophenyl)amino]carbonyl}amino)methyl]-4-methylpentanoic acid]
0.054	105	25	1.35	92	CC(C)CC(CNC(=O)Nc1ccc(C(F)(F)F)cc1)C(=O)O (stereo not drawn) [Compound 8, 4-Methyl-2-{[({[4-(trifluoromethyl)phenyl}amino}carbonyl)amino]methyl}pentanoic acid]
0.163	95	18	3		CC(C)CC(CNC(=O)Nc1ccc(Cl)cc1)C(=O)O (stereo not drawn) [Compound 9, 2-[({[(4-Chlorophenyl)amino]carbonyl}amino)methyl]-4-methylpentanoic acid]
0.113	98	17	1.91	94	CC(C)CC(CNC(=O)Nc1ccc(Br)cc1F)C(=O)O (stereo not drawn) [Compound 10, 2[({[(4-Bromo-2-fluorophenyl)amino]carbonyl}amino)methyl]-4-methylpentanoic acid]
1.22	92		> 1	56	COc1ccc(NC(=O)NCC(CC(C)C)C(=O)O)cc1 (stereo not drawn) [Compound 11, 2-[({[(4-methoxyphenyl)amino]carbonyl}amino)methyl]-4-methylpentanoic acid]
1.18	81	6.9	8.09	40	CC(C)CC(CNC(=O)Nc1ccc(OC(F)(F)F)cc1)C(=O)O (stereo not drawn) [Compound 12, 4-Methyl-2-{[({[4-(trifluoromethoxy)phenyl]amino}carbonyl)amino]methyl}pentanoic acid]
2.19	97	1.2	2.67	83	CC(C)C(CNC(=O)Nc1ccc(Br)cc1)C(=O)O (stereo not drawn) [Compound 13, 2-((3-(4-Bromophenyl)ureido)methyl)-3-methylbutanoic acid]
0.243	99	5.4	1.32	83	CCCC(CNC(=O)Nc1ccc(Br)cc1)C(=O)O (stereo not drawn) [Compound 14, 2-((3-(4-Bromophenyl)ureido)methyl)pentanoic acid]
0.067	94	5.2	0.351	93	O=C(NCC(Cc1ccccc1)C(=O)O)Nc1ccc(Br)cc1 (stereo not drawn) [Compound 15, 2-Benzyl-3-(3-(4-bromophenyl)ureido)propanoic acid]
2.85	84	1.1	3.07	62	CC(CNC(=O)Nc1ccc(Br)cc1)C(=O)O (stereo not drawn) [Compound 16, 3-(3-(4-Bromophenyl)ureido)-2-methylpropanoic acid]
2.15	85	1.1	2.27	71	CCC(CNC(=O)Nc1ccc(Br)cc1)C(=O)O (stereo not drawn) [Compound 17, 2-((3-(4-Bromophenyl)ureido)methyl)butanoic acid]
0.051		1.6	0.082	97	O=C(Nc1ccc(Br)cc1)NC1CCCCCCC1C(=O)O (stereo not drawn) [Compound 20, 2-(3-(4-Bromophenyl)ureido)cyclooctanecarboxylic acid]
0.007	99	179	1.26	89	CC(C)CC(CCNC(=O)Nc1ccc(Br)cc1)S(=O)(=O)O (stereo not drawn) [Compound 21, 1-(3-(4-Bromophenyl)ureido)-5-methylhexane-3-sulfonic acid]
0.552	98	2.7	1.5	18	CC(C)CC(CNC(=O)Nc1ccc(Br)cc1)C(=O)NCC(=O)OC(C)(C)C (stereo not drawn) [Compound 31, t-Butyl ({2-[({[(4 bromophenyl)amino]carbonyl}amino)methyl]-4-methylpentanoyl}amino)acetate]
2.51	73	0.41	1.03	89	CC(C)CC(CNC(=O)Nc1ccc(Br)cc1)C(=O)N(C)CC(=O)OC(C)(C)C (stereo not drawn) [Compound 32, tert-Butyl 2-(2-((3-(4-bromophenyl)ureido)methyl)-N,4-dimethylpentanamido)acetate]
0.013	95	10	0.13	98	CC(C)CC(CNC(=O)Nc1ccc(Br)cc1)C(=O)NCc1nnn[nH]1 (stereo not drawn) [Compound 33, N-((1H-tetrazol-5-yl)methyl)-2-((3-(4-bromophenyl)ureido)methyl)-4-methylpentanamide]
6.32	69	<1	0.314	92	CC(C)CC(CNC(=O)Nc1ccc(Br)cc1)C(=O)N(C)C (stereo not drawn) [Compound 34, 2-((3-(4-bromophenyl)ureido)methyl)-N,N,4-trimethylpentanamide]
7.09	80	0.14	0.975	95	CC(C)CC(CNC(=O)Nc1ccc(Br)cc1)C(N)=O (stereo not drawn) [Compound 35, 2-((3-(4-bromophenyl)ureido)methyl)-4-methylpentanamide]
